This assay deals with T1, prestin (SLC26A5) (Mus musculus, UniProt Q99NH7).
T1 construct: endogenous prestin in isolated C57BL/6 mouse outer hair cells
T1 sequence (Q99NH7 1-744): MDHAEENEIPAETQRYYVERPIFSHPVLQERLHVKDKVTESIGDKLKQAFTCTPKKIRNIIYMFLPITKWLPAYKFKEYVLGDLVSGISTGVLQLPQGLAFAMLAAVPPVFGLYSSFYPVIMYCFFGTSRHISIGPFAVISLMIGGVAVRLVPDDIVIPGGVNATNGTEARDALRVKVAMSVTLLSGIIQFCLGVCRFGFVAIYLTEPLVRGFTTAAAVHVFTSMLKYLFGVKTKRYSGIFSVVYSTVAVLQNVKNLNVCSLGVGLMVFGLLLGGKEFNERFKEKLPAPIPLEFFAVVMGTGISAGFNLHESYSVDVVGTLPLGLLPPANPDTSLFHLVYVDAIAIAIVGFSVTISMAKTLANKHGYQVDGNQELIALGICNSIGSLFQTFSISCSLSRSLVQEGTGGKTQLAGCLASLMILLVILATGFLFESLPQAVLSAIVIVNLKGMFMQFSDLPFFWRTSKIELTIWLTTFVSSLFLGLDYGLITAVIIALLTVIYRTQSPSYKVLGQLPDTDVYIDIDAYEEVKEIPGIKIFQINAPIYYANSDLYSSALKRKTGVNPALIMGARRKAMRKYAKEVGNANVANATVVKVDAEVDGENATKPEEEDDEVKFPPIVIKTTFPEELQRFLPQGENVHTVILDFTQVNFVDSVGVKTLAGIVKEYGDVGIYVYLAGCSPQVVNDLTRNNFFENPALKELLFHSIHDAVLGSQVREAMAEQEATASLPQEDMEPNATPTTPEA
As to the kind of experiment: whole-cell patch clamp of outer hair cells, non-linear capacitance / charge transfer (Qmax) at […] intracellular chloride. It is filed as cell-based. For orientation: The patch-clamp technique gives a direct electrical read-out from membranes.

The results in this text go back to paper PMC5560734, “Diflunisal inhibits prestin by chloride-dependent mechanism” (PLoS ONE, 2017).

Each structure is given as a SMILES string.

Usually IC50 stands for the concentration that inhibits the measured activity by half. Read a low IC50 as greater potency.

`O=C(O)c1cc(-c2ccc(F)cc2F)ccc1O` [DFL, diflunisal]: half-maximal inhibition (IC50) required 98 µM.
